# Laboratory results reported in patent US20130030007A1, “Obesity Small Molecules” (AKRON MOLECULES GMBH, priority 2010, published 2013).
# Non-standard residues stand in square brackets, D forms with d. Residues, ends and D or L forms follow the SMILES beside them. No end group written: not given here. pGlu = O=C1CC[C@@H](C(=O)O)N1; Thz = O=C(O)[C@@H]1CSCN1
# System: human ortholog of Drosophila obesity gene
# Experiment: Table 1: type of interaction of small molecule with therapeutic target gene
# Parameters: key: O: Obesity - obesity pathway interaction; B: validated binding partner
# Conditions: not given
row,Compound,Type: Type of interaction
1,COc1ccc(-c2cc(=O)c3c(OC)c(OC)c(OC)c(OC)c3o2)cc1 [Tangeretin],B
2,O=C(O[C@@H]1Cc2c(O)cc(O)cc2O[C@@H]1c1ccc(O)c(O)c1)c1cc(O)c(O)c(O)c1 [epicatechin gallate],B
3,O=C1C[C@@H](c2ccc(O[C@@H]3O[C@H](CO)[C@@H](O)[C@H](O)[C@H]3O)cc2)Oc2cc(O)ccc21 [liquiritin],O
4,O=c1c2ccccc2nc2n1CCc1c-2[nH]c2ccccc12 [rutecarpine],B
5,O=C(/C=C/c1ccccc1)NC(NC(=S)Nc1cccc2cccnc12)C(Cl)(Cl)Cl (stereo not drawn) [salubrinal],B

# System: human ortholog of Drosophila obesity gene
# Experiment: not given
# Parameters: key: O: Obesity - obesity pathway interaction; B: validated binding partner
# Conditions: cited from earlier work
row,Compound,Type: Type of interaction
1,O=C1OC(=O)[C@H]2[C@@H]1[C@@H]1CC[C@H]2O1 [norcantharidin],B
2,O=C1NC(=O)C2C3C=CC(C3)C12 (stereo not drawn) [noreximide],O
3,Oc1ccc(CC2NCCc3cc(O)c(O)cc32)cc1O (stereo not drawn) [norlaudanosoline],B
4,C[C@@H]1Cc2c(Cl)cc(C(=O)N[C@@H](Cc3ccccc3)C(=O)O)c(O)c2C(=O)O1 [ochratoxin A],O
5,O=C(O[C@H]1[C@@H]2OC(=O)c3cc(O)c(O)c(O)c3-c3c4cc(c(O)c3O)Oc3c(cc(O)c(O)c3O)C(=O)O[C@H]3C(O)O[C@@H]5COC(=O)c6cc(O)c(O)c(O)c6-c6c(cc(c(O)c6O)Oc6c(cc(O)c(O)c6O)C(=O)O[C@H]1C(O)O[C@@H]2COC4=O)C(=O)O[C@H]5[C@@H]3OC(=O)c1cc(O)c(O)c(O)c1)c1cc(O)c(O)c(O)c1 (stereo partly drawn) [oenothein B],B
6,CO[C@H]1C[C@H](O[C@H]2CC[C@@]3(C)[C@H](CC[C@@H]4[C@@H]3CC[C@]3(C)[C@@H](C5=CC(=O)OC5)[C@@H](OC(C)=O)C[C@]43O)C2)O[C@@H](C)[C@@H]1O [oleandrin],B
7,CCCCCCCC/C=C\CCCCCCCC(N)=O [oleylamide],B
8,COc1ccc(-c2coc3cc(O)cc(O)c3c2=O)cc1 [olmelin],B
9,CNC(=N)NCCC[C@H](N)C(=O)O [omega-N-Methylarginine],O
10,O=C(O)C(=O)O.[NH-][C@@H]1CCCC[C@H]1[NH-].[Pt+2] [oxaliplatin],O
11,CCCCC[C@H](O)/C=C/[C@H]1C=CC(=O)[C@@H]1CCCCCCC(=O)O [prostaglandin A1],O
12,CCCCC[C@H](O)/C=C/[C@H]1C(=O)C[C@H](O)[C@@H]1C/C=C\CCCC(=O)O [prostaglandin D2],B
13,CCCCC[C@H](O)/C=C/[C@H]1[C@H](O)CC(=O)[C@@H]1CCCCCCC(=O)O [prostaglandin E1],O
14,CCCCC[C@H](O)/C=C/[C@@H]1[C@@H](C/C=C\CCCC(=O)O)[C@@H](O)C[C@H]1O [prostaglandin F2alpha],O
15,CCCCC[C@H](O)/C=C/[C@@H]1[C@@H](C/C=C\CCCC(=O)O)[C@@H]2C[C@H]1OO2 [prostaglandin H2],O
16,COC(=O)C1=CC[C@@]23CC[C@@H]([C@@](C)(/C=C/C=C(\C)C(=O)O)OC2=O)[C@@]3(OC(C)=O)CC1 [pseudolaric acid B],O
17,C[C@H](N[C@@H](CCc1ccccc1)C(=O)O)C(=O)N1[C@H](C(=O)O)C[C@@H]2CCC[C@@H]21 [ramiprilat],B
18,LY 303511,O
19,mahanine,B
20,maraviroc,B
21,melitten,O
22,milbemycin,O
23,neodymium,O
24,obovatol,B
25,pegvisomant,O
26,pentosidine,B
27,pheophorbide a,O
28,pifithrin,B
29,pindobind,O
30,prostaglandin J2,O

# Same assay, conditions: interaction of the small molecule with the human ortholog(s) / Drosophila gene(s) listed in the same table line; cited from earlier work
row,Compound,Type: Type of interaction
1,CNc1cc(OC)c(C(=O)NC2CCN(Cc3ccccc3)C2C)cc1Cl (stereo not drawn) [nemonapride],O
2,O=C1NC(=O)C(Cc2ccc3cc(OCc4ccccc4F)ccc3c2)S1 (stereo not drawn) [netoglitazone],B
3,CC(CNC(=O)c1cccnc1)NC(=O)c1cccnc1 (stereo not drawn) [nicaraven],O
4,NCCC(Oc1ccc(C(F)(F)F)cc1)c1ccccc1 (stereo not drawn) [norfluoxetine],B
5,COc1ccc(CCNCCCC(C#N)(c2ccc(OC)c(OC)c2)C(C)C)cc1OC (stereo not drawn) [norverapamil],O
6,CO[C@@H]1[C@@H](OC(N)=O)[C@@H](O)[C@H](Oc2ccc3c(O)c(NC(=O)c4ccc(O)c(CC=C(C)C)c4)c(=O)oc3c2C)OC1(C)C [novobiocin],O
7,O=C(N[C@H]1CCS[C@H]2CCC[C@@H](C(=O)O)N2C1=O)[C@@H](S)Cc1ccccc1 [omapatrilat],O
8,COc1ccc2nc(S(=O)(=O)Cc3ncc(C)c(OC)c3C)[nH]c2c1 [omeprazole sulfone],B
9,CO[C@@H]1C(=O)CC[C@]2(CO2)[C@@]1(O)[C@@]1(C)O[C@@H]1CC=C(C)C [ovalicin],B
10,O=c1[nH]c2ccccc2n1CCCN1CCN(C(c2ccccc2)c2ccccc2)CC1 [oxatomide],B
11,NC(=O)N1c2ccccc2CC(=O)c2ccccc21 [oxcarbazepine],O
12,O=C1CCC[C@@H]2[C@H]3CCC[N+]4([O-])CCC[C@@H](CN12)[C@@H]34 (stereo partly drawn) [oxymatrine],B
13,Nc1ccc(C(=O)NCC(=O)O)cc1 [p-Aminohippuric Acid],B
14,NCCC(O)(P(=O)(O)O)P(=O)(O)O [pamidronate],B
15,CC1(C)CCC[C@](C)([C@H]2CC[C@]3(C)[C@@H]2[C@H](O)C[C@@H]2[C@@]4(C)CC[C@H](O)C(C)(C)[C@@H]4CC[C@]23C)O1 [panaxadiol],B
16,c1ccc2c(c1)ccc1ccccc12 [phenanthrene],O
17,COc1cc([C@@H]2c3cc4c(cc3[C@H](O)[C@H]3COC(=O)[C@@H]23)OCO4)cc(OC)c1OC [picropodophyllin],B
18,O=C1CC[C@@H](C(=O)N2CSC[C@H]2C(=O)O)N1 [pidotimod] ([pGlu]-[Thz]-OH),O
19,CC1=CC(=O)c2c(O)cccc2C1=O [plumbagin],B
20,CC[C@@H]([C@H](C)O)n1ncn(-c2ccc(N3CCN(c4ccc(OC[C@@H]5CO[C@@](Cn6cncn6)(c6ccc(F)cc6F)C5)cc4)CC3)cc2)c1=O [posaconazole],B
21,CC(=O)O[C@@]12C[C@@H](C)[C@@]3(O)[C@@H](C=C(CO)C[C@]4(O)C(=O)C(C)=C[C@@H]34)[C@@H]1C2(C)C [prostratin],O
22,COCCCN1CCC(NC(=O)c2cc(Cl)c(N)c3c2OCC3)CC1 [prucalopride],O
23,O=c1c(-c2ccc(O)cc2)coc2c([C@@H]3O[C@H](CO)[C@@H](O)[C@H](O)[C@H]3O)c(O)ccc12 [puerarin],B
24,OCCOCCN1CCN(C2=Nc3ccccc3Sc3ccccc32)CC1 [quetiapine],O
25,COC1=C(CC(C)OC(=O)c2cc(Cl)c(O)cc2O)C(=O)C(NC=O)=CC1=O (stereo not drawn) [radester],O
26,Pyrethrins,O
27,"neuromedin C (GNHWAVGHLM; ends and bridges not checked; UniProt P07492 41-50, looked up)",O
28,omalizumab,B

# System: not given
# Experiment: not given
# Conditions: human, in vivo, po; cited from earlier work
row,Compound,acute toxic effects
1,CCC(=O)O[C@]1(C(=O)SCF)[C@H](C)C[C@H]2[C@@H]3C[C@H](F)C4=CC(=O)C=C[C@]4(C)[C@@]3(F)[C@@H](O)C[C@@]21C [fluticasone propionate],no acute toxic effects reported

# Same assay, conditions: intranasal 2 mg twice daily for 7 days, healthy human volunteers; cited from earlier work
row,Compound,tolerability
1,CCC(=O)O[C@]1(C(=O)SCF)[C@H](C)C[C@H]2[C@@H]3C[C@H](F)C4=CC(=O)C=C[C@]4(C)[C@@]3(F)[C@@H](O)C[C@@]21C [fluticasone propionate],well tolerated

# Same assay, conditions: repeat oral doses up to 80 mg daily for 10 days in volunteers, up to 10 mg daily for 14 days in patients; cited from earlier work
row,Compound,tolerability
1,CCC(=O)O[C@]1(C(=O)SCF)[C@H](C)C[C@H]2[C@@H]3C[C@H](F)C4=CC(=O)C=C[C@]4(C)[C@@]3(F)[C@@H](O)C[C@@]21C [fluticasone propionate],well tolerated
